ChEMBL document CHEMBL6115036, “Exploration of membrane-active cephalosporin derivatives as potent antibacterial agents against Staphylococcus aureus biofilms and persisters” (Eur J Med Chem, 2025)
Values after ≈ are worked out from the molar mass of the structure shown. Active and inactive are the calls of the source. The rule behind the calls is not given here.

Assays:
Staphylococcus aureus [1] = test: Antimicrobial activity against Staphylococcus aureus incubated for 16 to 18 hrs by broth dilution assay; assay type: functional; conditions: time 16-18 hrs
Enterococcus faecalis = test: Antimicrobial activity against Enterococcus faecalis incubated for 16 to 18 hrs by broth dilution assay; assay type: functional; conditions: time 16-18 hrs
Staphylococcus aureus [2] = test: Induction of cytoplasmic membrane depolarization in Staphylococcus aureus assessed as increase in fluorescence intensity measured for 20 mins by DiSC3(5) dye based analysis; assay type: functional, organism-based
[3] = tested on: Stenotrophomonas maltophilia; test: Antimicrobial activity against Stenotrophomonas maltophilia incubated for 16 to 18 hrs by broth dilution assay; assay type: functional; conditions: time 16-18 hrs
Escherichia coli = test: Antimicrobial activity against Escherichia coli incubated for 16 to 18 hrs by broth dilution assay; assay type: functional; conditions: time 16-18 hrs
Staphylococcus aureus [4] = test: Induction of inner membrane permeability in Staphylococcus aureus assessed as increase in fluorescence intensity measured for 20 mins by PI dye based analysis; assay type: functional, organism-based
Staphylococcus aureus [5] = test: Induction of cytoplasmic membrane depolarization in Staphylococcus aureus assessed as increase in fluorescence intensity at 32 ug/ml measured for 20 mins by DiSC3(5) dye based analysis; assay type: functional, organism-based; conditions: dose 32.0 µg/ml
Staphylococcus aureus [6] = test: Induction of inner membrane permeability in Staphylococcus aureus assessed as increase in fluorescence intensity at 32 ug/ml measured for 20 mins by PI dye based analysis; assay type: functional, organism-based; conditions: dose 32.0 µg/ml
[7] = Hemolytic activity in sheep red blood cells incubated for 1 hr; assay type: toxicity, cell-based, Ovis aries, Erythrocyte
Staphylococcus aureus [8] = test: Inhibition of biofilm formation in Staphylococcus aureus assessed as reduction in number of live bacterial count at 16 times MIC incubated for 24 hrs; assay type: functional
Staphylococcus aureus [9] = test: Induction of resistance development in Staphylococcus aureus assessed as fold increase in MIC at sub-MIC measured after 20 passages relative to control; assay type: functional
Staphylococcus aureus [10] = test: Induction of resistance development in norfloxacin-resistant Staphylococcus aureus assessed as fold increase in MIC at sub-MIC measured after 20 passages relative to control; assay type: functional
[11] = Cytotoxicity against human HeLa cells incubated for 24 hrs by CCK8 assay; assay type: toxicity, cell-based
[12] = Cytotoxicity against HUVEC cells incubated for 24 hrs by CCK8 assay; assay type: toxicity, cell-based; conditions: human
Staphylococcus aureus [13] = test: Antibacterial activity against Staphylococcus aureus assessed as fold increase in MIC in presence of 50% sheep plasma; assay type: functional
Staphylococcus aureus [14] = test: Induction of intracellular ROS accumulation in Staphylococcus aureus incubated overnight by DCFH-DA dye based analysis; assay type: functional, organism-based
Staphylococcus aureus [15] = test: Antibacterial activity against Staphylococcus aureus assessed as fold increase in MIC in presence of 50% FBS; assay type: functional
Staphylococcus aureus [16] = test: Antibacterial activity against rifampicin-induced persistant Staphylococcus aureus assessed as decrease in CFU at 100 times MIC measured for 10 hrs; assay type: functional, organism-based
Staphylococcus aureus [17] = test: Antibacterial activity against Staphylococcus aureus assessed as effect on quiescent cells at 100 to 200 times MIC incubated for 24 hrs; assay type: functional, organism-based

| Structure (SMILES) | MIC (Staphylococcus aureus [1]) [mg/L] | MIC (Enterococcus faecalis) [mg/L] | MIC [3] [mg/L] | MIC (Escherichia coli) [mg/L] | Activity (Staphylococcus aureus [5]) | Activity (Staphylococcus aureus [6]) | HC50 at 1 h [7] [µg/mL] | also measured |
| --- | --- | --- | --- | --- | --- | --- | --- | --- |
| CCCCCCCC[n+]1ccc(SCC2=C(C(=O)O)N3C(=O)[C@@H](NC(=O)Cc4ccccc4)[C@H]3SC2)cc1.O=C([O-])C(F)(F)F | 0.063 | 4 | 128 | 128 |  |  |  | Activity (Staphylococcus aureus [2]): inactive; Activity (Staphylococcus aureus [4]): inactive |
| CCCCCCCCCC[n+]1ccc(-c2cc[n+](CC3=C(C(=O)OCc4ccc(OC)cc4)N4C(=O)[C@@H](NC(=O)Cc5ccccc5)[C@H]4SC3)cc2)cc1.[I-].[I-] | 0.5 | 16 | 128 | 128 | Active | Active | > 1280 |  |
| CCCCCCCC[n+]1ccc(C(=O)N[C@@H]2C(=O)N3C(C(=O)OC(c4ccccc4)c4ccccc4)=C(COC(C)=O)CS[C@H]23)cc1.[I-] | 16 | 8 | 32 | 64 |  |  |  | Activity (Staphylococcus aureus [2]): Active; Activity (Staphylococcus aureus [4]): Active |
| CN[C@H](CC(C)C)C(=O)N[C@H]1C(=O)N[C@@H](CC(N)=O)C(=O)N[C@H]2C(=O)N[C@H]3C(=O)N[C@H](C(=O)N[C@H](C(=O)O)c4cc(O)cc(O)c4-c4cc3ccc4O)[C@H](O)c3ccc(c(Cl)c3)Oc3cc2cc(c3O[C@@H]2O[C@H](CO)[C@@H](O)[C@H](O)[C@H]2O[C@H]2C[C@](C)(N)[C@H](O)[C@H](C)O2)Oc2ccc(cc2Cl)[C@H]1O [VANCOMYCIN] |  | 2 (≈ 1.38 µM) |  |  |  |  | > 1280 | Activity (Staphylococcus aureus [8]): ~1 10^5CFU/ml |
| CCn1cc(C(=O)O)c(=O)c2cc(F)c(N3CCNCC3)cc21 [NORFLOXACIN] |  |  |  |  |  |  |  | fold change (FC) (Staphylococcus aureus [9]): 64; fold change (FC) (Staphylococcus aureus [10]): 64 |
| CCCCCCCCCCCCCCCC[n+]1ccc(-c2cc[n+](CC3=C(C(=O)OCc4ccc(OC)cc4)N4C(=O)[C@@H](NC(=O)Cc5ccccc5)[C@H]4SC3)cc2)cc1.[I-].[I-] | 4 | 8 | 128 | 128 | Active | Active | 109 |  |
| CC[C@H](C)[C@H](NC(=O)CN)C(=O)NCC(=O)N[C@@H](C)C(=O)N[C@H](C(=O)N[C@@H](CC(C)C)C(=O)N[C@@H](CCCCN)C(=O)N[C@H](C(=O)N[C@@H](CC(C)C)C(=O)N[C@H](C(=O)N[C@H](C(=O)NCC(=O)N[C@@H](CC(C)C)C(=O)N1CCC[C@H]1C(=O)N[C@@H](C)C(=O)N[C@@H](CC(C)C)C(=O)N[C@H](C(=O)N[C@@H](CO)C(=O)N[C@@H](Cc1c[nH]c2ccccc12)C(=O)N[C@H](C(=O)N[C@@H](CCCCN)C(=O)N[C@@H](CCCNC(=N)N)C(=O)N[C@@H](CCCCN)C(=O)N[C@@H](CCCNC(=N)N)C(=O)N[C@@H](CCC(N)=O)C(=O)N[C@@H](CCC(N)=O)C(N)=O)[C@@H](C)CC)[C@@H](C)CC)[C@@H](C)O)[C@@H](C)O)C(C)C)C(C)C [MELITTIN] |  | 2 (≈ 0.703 µM) | 8 (≈ 2.81 µM) |  |  |  |  | CC50 at 24 h [11]: 3.9 mg/L (≈ 1.37 µM); CC50 at 24 h [12]: 3.8 mg/L (≈ 1.33 µM); fold change (FC) (Staphylococcus aureus [13]): >32; Activity (Staphylococcus aureus [14]): Dose-dependent-effect; fold change (FC) (Staphylococcus aureus [15]): >32 |
| CCCCCCCCCCCC[n+]1ccc(-c2cc[n+](CC3=C(C(=O)OCc4ccc(OC)cc4)N4C(=O)[C@@H](NC(=O)Cc5ccccc5)[C@H]4SC3)cc2)cc1.[I-].[I-] | 1 | 4 | 32 | 32 | Active | Active | 273 |  |
| O=C(O)c1cn(C2CC2)c2cc(N3CCNCC3)c(F)cc2c1=O [CIPROFLOXACIN] |  |  |  |  |  |  |  | Activity (Staphylococcus aureus [16]): inactive; fold change (FC) (Staphylococcus aureus [10]): 64 |
| CO/N=C(\C(=O)N[C@@H]1C(=O)N2C(C(=O)O)=C(COC(C)=O)CS[C@H]12)c1csc(N)n1 |  |  |  |  |  |  |  | Activity (Staphylococcus aureus [16]): inactive; Activity (Staphylococcus aureus [17]): inactive |
